Results taken from patent publication US20190307821A1, “METHODS AND COMPOSITIONS FOR CANCER THERAPY” (priority 2016, published 2019).

How the values were obtained:
[1] = test system: OVV-EGFP in ID8-R tumor cells; format: cell-based, vaccinia virus
[2] = test system: parental and drug-resistant CAOV2 cells; format: cell-based, human; details: 72-h cell viability assay, CAOV2-R versus parental
[3] = test system: OVV-EGFP in CAOV2-R tumor cells; format: cell-based, vaccinia virus
ID8-R cells = assay: Growth in the presence of DOX (trypan blue exclusion test); format: cell-based, murine; details: DOX 3 μM, after a one-week period
Protocol: (§1) FIG. 9. Susceptibility of parental and resistant ID8 and CAOV2 tumor cells to PTX, CBDCA and DOX. (a) Characterization of side population (SP) in the parental (P) and drug-resistant (R) ID8 (left panel) and CAOV2 (right panel) tumor cells by Hoechst 33342 dye staining. One representative experiment of two independent experiments performed in duplicates is shown. Growth of the parental and drug-resistant tumor variants of ID8 (b) and CAOV2 (c) cells in the presence of PTX (59 nM) and CBDCA (2.6 μM) (left panel) or DOX (3 μM) (right panel) was determined by a trypan blue exclusion test for cell viability. Bars represent the mean±SD of two independent experiments using triplicate samples.

ID8-R tumor cells = format: cell-based, murine; details: 24 h cultures, OVV MOI of 1 or DOX 1 μM alone
CAOV2-R cells = assay: Growth in the presence of DOX (trypan blue exclusion test); format: cell-based, human; details: DOX 3 μM, after a one-week period
Protocol: as §1

[4] = test system: parental and drug-resistant ID8 cells; format: cell-based, murine; details: 72-h cell viability assay, ID8-R versus parental cells

COc1cccc2c1C(=O)c1c(O)c3c(c(O)c1C2=O)C[C@@](O)(C(=O)CO)C[C@@H]3O[C@H]1C[C@H](N)[C@H](O)[C@H](C)O1 [DOX, doxorubicin]
decrease in viral titers [1]: 10 fold
differences in the IC50 values between the resistant and parental cells [2]: 3 fold
decrease in viral titers [3]: 3 fold
dead cells (ID8-R cells): over 90%
cells with apoptosis or necrosis (ID8-R tumor cells): ~20%
dead cells (CAOV2-R cells): over 90%
IC50 values higher compared to the parental cells [4]: approximately 10 fold
